Measured values: patent publication US6545002B1 (University of Virginia Patent Foundation, priority 1999, dated 2003)

Tests used:
rat A1 receptors (rA1) = molecular target: T1, rat A1 receptors (rA1) (Rattus norvegicus, UniProt P25099); test: Displacement of [3H]R-PIA binding in rat brain (cerebral cortical) membranes; conditions: Table 2; read-out: rA1 Ki or IC50
T1 construct: to A1 receptors from rat cerebral cortical membranes; from tissue; host or cells: rat cerebral cortical (brain) membranes
T1 sequence (P25099 1-326): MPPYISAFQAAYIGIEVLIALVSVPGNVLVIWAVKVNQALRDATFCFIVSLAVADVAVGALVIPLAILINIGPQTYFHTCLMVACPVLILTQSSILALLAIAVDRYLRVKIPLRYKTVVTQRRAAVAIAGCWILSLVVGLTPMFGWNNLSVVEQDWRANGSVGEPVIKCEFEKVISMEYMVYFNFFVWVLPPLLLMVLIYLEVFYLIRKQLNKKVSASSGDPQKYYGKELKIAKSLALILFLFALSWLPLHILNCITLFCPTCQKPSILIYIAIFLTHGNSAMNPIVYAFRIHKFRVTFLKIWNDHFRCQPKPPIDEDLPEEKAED

[1] = test system: myocardial infarction in dogs; test: Ninety minute LAD coronary artery occlusion/reperfusion, infarct size by TTC staining; assay type: in vivo, dog; conditions: 200 nM intracoronary at 1 ml/min during occlusion and reperfusion, versus vehicle
rat A2A receptors (rA2A) = molecular target: T2, rat A2A receptors (rA2A) (Rattus norvegicus, UniProt P30543); test: Displacement of [3H]CGS 21680 binding in rat striatal membranes; conditions: Table 2; read-out: rA2A Ki or IC50
T2 construct: to A2A receptors from rat striatal membranes was performed as described; from tissue; host or cells: rat striatal membranes
T2 sequence (P30543 whole entry): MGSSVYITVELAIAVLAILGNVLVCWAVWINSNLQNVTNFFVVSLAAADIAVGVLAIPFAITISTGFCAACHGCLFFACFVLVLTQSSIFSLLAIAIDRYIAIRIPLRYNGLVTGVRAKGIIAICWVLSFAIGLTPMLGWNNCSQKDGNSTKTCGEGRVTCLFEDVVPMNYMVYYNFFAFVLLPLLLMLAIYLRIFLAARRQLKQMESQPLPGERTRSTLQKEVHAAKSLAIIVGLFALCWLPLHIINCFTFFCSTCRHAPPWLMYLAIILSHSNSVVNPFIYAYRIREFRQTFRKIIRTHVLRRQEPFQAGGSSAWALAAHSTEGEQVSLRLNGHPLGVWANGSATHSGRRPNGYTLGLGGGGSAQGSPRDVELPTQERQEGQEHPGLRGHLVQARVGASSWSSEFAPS

## CCCn1c(=O)c2[nH]c(-c3ccc(OCC(=O)Nc4ccc(C#N)cc4)cc3)nc2n(CCC)c1=O [Compound 27, 8-[4-[((4-Cyano)phenylcarbamoylmethyl)oxy]phenyl]-1,3-di-(n-propyl)xanthine]
Rat A1 receptors (rA1)
  Ki: 16.8 ± 3.6 nM
[1]
  infarct size / infarct area (IA) as %LV or %RA: significantly reduced the infarct area
Rat A2A receptors (rA2A)
  Ki: 612 ± 287 nM
